Species on record: Rattus norvegicus
Assay: Open TG-GATES - Regimen: Daily Repeat
Format: toxicity, organism-based, Sprague-Dawley
Parameters: regimen Daily Repeat, gender Male, age 6 weeks
Conditions: in vivo, po, route gavage; for APTT / Bas / Eos / Fbg / Hb / Ht / Lym / MCH / MCHC / MCV / Mono / Neu / PT / Plat / RBC / Ret / WBC: tissue Blood; for KIDNEY_L / KIDNEY_R / KIDNEY_TOTAL: tissue Kidney; for LIVER: tissue Liver; for A/G / ALP / ALT / AST / BUN / CRE / Ca / Cl / DBIL / GLC / IP / K / LDH / Na / PL / RALB / TBIL / TC / TG / TP / gamma-GTP: tissue Plasma
[1] = 300 mg/kg, 72 h, dose level Middle, time 3 day
[2] = 300 mg/kg, […], dose level Middle, time 7 day
[3] = 300 mg/kg, […], dose level Middle, time 14 day
[4] = 300 mg/kg, […], dose level Middle, time 28 day
[5] = 1000 mg/kg, 72 h, dose level High, time 3 day
[6] = 1000 mg/kg, […], dose level High, time 7 day
[7] = 1000 mg/kg, […], dose level High, time 14 day
[8] = 1000 mg/kg, […], dose level High, time 28 day

CC(C)(S)[C@@H](N)C(=O)O [PENICILLAMINE]
TERMINAL_BW [1]: 235.2 g
APTT [1]: 17.2 s
Bas [1]: 0.4%
Eos [1]: 1%
Fbg [1]: 301.4 mg/dL
Hb [1]: 13.7 g/dL
Ht [1]: 42.2%
Lym [1]: 79.2%
MCH [1]: 20.9 pg
MCHC [1]: 32.6%
MCV [1]: 64.1 fL
Mono [1]: 3.2%
Neu [1]: 15.4%
PT [1]: 14.1 s
Plat [1]: 114.9 x10_4/uL
RBC [1]: 658.6 x10_4/ul
Ret [1]: 7.6%
WBC [1]: 91.9 x10_2/uL
KIDNEY_L [1]: 1 g
KIDNEY_R [1]: 1 g
KIDNEY_TOTAL [1]: 2 g
LIVER [1]: 11.1 g
A/G [1]: 0.9
ALP [1]: 1461.8 IU/L
ALT [1]: 40.4 IU/L
AST [1]: 66.2 IU/L
BUN [1]: 14.4 mg/dL
CRE [1]: 0.2 mg/dL
Ca [1]: 11 mg/dL
Cl [1]: 106.6 meq/L
DBIL [1]: 0.012 mg/dL
GLC [1]: 181.6 mg/dL
IP [1]: 7.2 mg/dL
K [1]: 4 meq/L
LDH [1]: 102 IU/L
Na [1]: 144.6 meq/L
PL [1]: 159.2 mg/dL
RALB [1]: 2.8 g/dL
TBIL [1]: 0.028 mg/dL
TC [1]: 81.2 mg/dL
TG [1]: 102.8 mg/dL
TP [1]: 5.8 g/dL
gamma-GTP [1]: 1 IU/L
TERMINAL_BW [2]: 273.3 g
TERMINAL_BW [3]: 321.5 g
TERMINAL_BW [4]: 390 g
APTT [2]: 16.6 s
Bas [2]: 0%
Eos [2]: 1.4%
Fbg [2]: 377.6 mg/dL
Hb [2]: 13.4 g/dL
Ht [2]: 40.7%
Lym [2]: 75.4%
MCH [2]: 20.6 pg
MCHC [2]: 33.1%
MCV [2]: 62.4 fL
Mono [2]: 3.6%
Neu [2]: 18.8%
PT [2]: 14 s
Plat [2]: 122.4 x10_4/uL
RBC [2]: 652.2 x10_4/ul
Ret [2]: 5.9%
WBC [2]: 96 x10_2/uL
APTT [3]: 23.3 s
Bas [3]: 0.2%
Eos [3]: 1%
Fbg [3]: 375.6 mg/dL
Hb [3]: 14.7 g/dL
Ht [3]: 43.5%
Lym [3]: 81.2%
MCH [3]: 20.2 pg
MCHC [3]: 33.8%
MCV [3]: 59.8 fL
Mono [3]: 2.2%
Neu [3]: 15.2%
PT [3]: 14.3 s
Plat [3]: 133 x10_4/uL
RBC [3]: 727 x10_4/ul
Ret [3]: 5.2%
WBC [3]: 103.7 x10_2/uL
APTT [4]: 17.4 s
Bas [4]: 0.4%
Eos [4]: 1.2%
Fbg [4]: 485.2 mg/dL
Hb [4]: 14.4 g/dL
Ht [4]: 42.7%
Lym [4]: 78%
MCH [4]: 18.7 pg
MCHC [4]: 33.8%
MCV [4]: 55.4 fL
Mono [4]: 2.6%
Neu [4]: 17.2%
PT [4]: 14.7 s
Plat [4]: 132.7 x10_4/uL
RBC [4]: 770 x10_4/ul
Ret [4]: 3.1%
WBC [4]: 131.5 x10_2/uL
KIDNEY_L [2]: 1.2 g
KIDNEY_R [2]: 1.1 g
KIDNEY_TOTAL [2]: 2.3 g
KIDNEY_L [3]: 1.2 g
KIDNEY_R [3]: 1.3 g
KIDNEY_TOTAL [3]: 2.5 g
KIDNEY_L [4]: 1.4 g
KIDNEY_R [4]: 1.4 g
KIDNEY_TOTAL [4]: 2.9 g
LIVER [2]: 12.2 g
LIVER [3]: 13.6 g
LIVER [4]: 15.6 g
A/G [2]: 0.9
ALP [2]: 1362.2 IU/L
ALT [2]: 38.6 IU/L
AST [2]: 61 IU/L
BUN [2]: 15.6 mg/dL
CRE [2]: 0.2 mg/dL
Ca [2]: 10.8 mg/dL
Cl [2]: 103.8 meq/L
DBIL [2]: 0.012 mg/dL
GLC [2]: 189.4 mg/dL
IP [2]: 7.2 mg/dL
K [2]: 4 meq/L
LDH [2]: 67.4 IU/L
Na [2]: 141.6 meq/L
PL [2]: 164.8 mg/dL
RALB [2]: 2.7 g/dL
TBIL [2]: 0.034 mg/dL
TC [2]: 85.4 mg/dL
TG [2]: 113.4 mg/dL
TP [2]: 5.7 g/dL
gamma-GTP [2]: 1 IU/L
A/G [3]: 0.9
ALP [3]: 1395 IU/L
ALT [3]: 41.8 IU/L
AST [3]: 64.2 IU/L
BUN [3]: 15.4 mg/dL
CRE [3]: 0.2 mg/dL
Ca [3]: 10.9 mg/dL
Cl [3]: 105 meq/L
DBIL [3]: 0.008 mg/dL
GLC [3]: 176.4 mg/dL
IP [3]: 7.2 mg/dL
K [3]: 3.9 meq/L
LDH [3]: 100.2 IU/L
Na [3]: 142.8 meq/L
PL [3]: 160.2 mg/dL
RALB [3]: 2.8 g/dL
TBIL [3]: 0.04 mg/dL
TC [3]: 80.4 mg/dL
TG [3]: 119.2 mg/dL
TP [3]: 6 g/dL
gamma-GTP [3]: 1 IU/L
A/G [4]: 0.9
ALP [4]: 911.4 IU/L
ALT [4]: 33.8 IU/L
AST [4]: 56.8 IU/L
BUN [4]: 14.8 mg/dL
CRE [4]: 0.2 mg/dL
Ca [4]: 10.8 mg/dL
Cl [4]: 105.6 meq/L
DBIL [4]: 0.008 mg/dL
GLC [4]: 186.8 mg/dL
IP [4]: 6.2 mg/dL
K [4]: 3.6 meq/L
LDH [4]: 60.6 IU/L
Na [4]: 144 meq/L
PL [4]: 147 mg/dL
RALB [4]: 2.8 g/dL
TBIL [4]: 0.072 mg/dL
TC [4]: 77 mg/dL
TG [4]: 87.8 mg/dL
TP [4]: 6.1 g/dL
gamma-GTP [4]: 1 IU/L
TERMINAL_BW [5]: 225.3 g
APTT [5]: 20.2 s
Bas [5]: 0%
Eos [5]: 1.2%
Fbg [5]: 286.4 mg/dL
Hb [5]: 13.2 g/dL
Ht [5]: 40.3%
Lym [5]: 78.6%
MCH [5]: 20.1 pg
MCHC [5]: 32.7%
MCV [5]: 61.6 fL
Mono [5]: 2.6%
Neu [5]: 16.8%
PT [5]: 14.4 s
Plat [5]: 121.8 x10_4/uL
RBC [5]: 657.4 x10_4/ul
Ret [5]: 6.2%
WBC [5]: 87.8 x10_2/uL
KIDNEY_L [5]: 1 g
KIDNEY_R [5]: 1 g
KIDNEY_TOTAL [5]: 2 g
LIVER [5]: 9.8 g
A/G [5]: 1
ALP [5]: 1073 IU/L
ALT [5]: 38 IU/L
AST [5]: 60.8 IU/L
BUN [5]: 13.2 mg/dL
CRE [5]: 0.2 mg/dL
Ca [5]: 10.7 mg/dL
Cl [5]: 105.8 meq/L
DBIL [5]: 0.012 mg/dL
GLC [5]: 166 mg/dL
IP [5]: 7.5 mg/dL
K [5]: 4.1 meq/L
LDH [5]: 94.2 IU/L
Na [5]: 144.2 meq/L
PL [5]: 143 mg/dL
RALB [5]: 2.8 g/dL
TBIL [5]: 0.038 mg/dL
TC [5]: 74.8 mg/dL
TG [5]: 50.4 mg/dL
TP [5]: 5.7 g/dL
gamma-GTP [5]: 0.8 IU/L
TERMINAL_BW [6]: 247.8 g
TERMINAL_BW [7]: 282 g
TERMINAL_BW [8]: 342.2 g
APTT [6]: 21.8 s
Bas [6]: 0%
Eos [6]: 1.4%
Fbg [6]: 452.4 mg/dL
Hb [6]: 13.2 g/dL
Ht [6]: 40.6%
Lym [6]: 79.2%
MCH [6]: 19.2 pg
MCHC [6]: 32.5%
MCV [6]: 59 fL
Mono [6]: 3%
Neu [6]: 15%
PT [6]: 14.6 s
Plat [6]: 131.3 x10_4/uL
RBC [6]: 687.8 x10_4/ul
Ret [6]: 4.6%
WBC [6]: 104.2 x10_2/uL
APTT [7]: 22.3 s
Bas [7]: 0%
Eos [7]: 1.2%
Fbg [7]: 520.8 mg/dL
Hb [7]: 13.1 g/dL
Ht [7]: 39.8%
Lym [7]: 82.6%
MCH [7]: 18.7 pg
MCHC [7]: 32.9%
MCV [7]: 56.8 fL
Mono [7]: 2.2%
Neu [7]: 13.2%
PT [7]: 15.3 s
Plat [7]: 164 x10_4/uL
RBC [7]: 701 x10_4/ul
Ret [7]: 4.9%
WBC [7]: 115.3 x10_2/uL
APTT [8]: 17.8 s
Bas [8]: 0.4%
Eos [8]: 1.8%
Fbg [8]: 646.8 mg/dL
Hb [8]: 12.1 g/dL
Ht [8]: 37.3%
Lym [8]: 71.2%
MCH [8]: 16.1 pg
MCHC [8]: 32.4%
MCV [8]: 49.8 fL
Mono [8]: 4.2%
Neu [8]: 21.6%
PT [8]: 15.7 s
Plat [8]: 156.3 x10_4/uL
RBC [8]: 749.2 x10_4/ul
Ret [8]: 5.6%
WBC [8]: 153.3 x10_2/uL
KIDNEY_L [6]: 1.1 g
KIDNEY_R [6]: 1.1 g
KIDNEY_TOTAL [6]: 2.1 g
KIDNEY_L [7]: 1.2 g
KIDNEY_R [7]: 1.2 g
KIDNEY_TOTAL [7]: 2.3 g
KIDNEY_L [8]: 1.4 g
KIDNEY_R [8]: 1.4 g
KIDNEY_TOTAL [8]: 2.8 g
LIVER [6]: 10.7 g
LIVER [7]: 11.8 g
LIVER [8]: 14.6 g
A/G [6]: 0.9
ALP [6]: 1010.8 IU/L
ALT [6]: 37 IU/L
AST [6]: 49.6 IU/L
BUN [6]: 15.2 mg/dL
CRE [6]: 0.2 mg/dL
Ca [6]: 10.8 mg/dL
Cl [6]: 104.4 meq/L
DBIL [6]: 0.016 mg/dL
GLC [6]: 169.2 mg/dL
IP [6]: 6.9 mg/dL
K [6]: 3.8 meq/L
LDH [6]: 72.4 IU/L
Na [6]: 142.4 meq/L
PL [6]: 156.4 mg/dL
RALB [6]: 2.8 g/dL
TBIL [6]: 0.066 mg/dL
TC [6]: 86.8 mg/dL
TG [6]: 59.2 mg/dL
TP [6]: 5.9 g/dL
gamma-GTP [6]: 1 IU/L
A/G [7]: 0.9
ALP [7]: 881.6 IU/L
ALT [7]: 37.2 IU/L
AST [7]: 52.4 IU/L
BUN [7]: 13 mg/dL
CRE [7]: 0.2 mg/dL
Ca [7]: 10.7 mg/dL
Cl [7]: 105.4 meq/L
DBIL [7]: 0.008 mg/dL
GLC [7]: 174.6 mg/dL
IP [7]: 6.7 mg/dL
K [7]: 3.8 meq/L
LDH [7]: 79.6 IU/L
Na [7]: 142.8 meq/L
PL [7]: 148.6 mg/dL
RALB [7]: 2.7 g/dL
TBIL [7]: 0.058 mg/dL
TC [7]: 81.6 mg/dL
TG [7]: 43.8 mg/dL
TP [7]: 5.8 g/dL
gamma-GTP [7]: 1 IU/L
A/G [8]: 0.8
ALP [8]: 458.6 IU/L
ALT [8]: 26.8 IU/L
AST [8]: 43.6 IU/L
BUN [8]: 14.2 mg/dL
CRE [8]: 0.2 mg/dL
Ca [8]: 10.5 mg/dL
Cl [8]: 105 meq/L
DBIL [8]: 0.02 mg/dL
GLC [8]: 162.4 mg/dL
IP [8]: 6.5 mg/dL
K [8]: 4 meq/L
LDH [8]: 70.4 IU/L
Na [8]: 144 meq/L
PL [8]: 137.6 mg/dL
RALB [8]: 2.7 g/dL
TBIL [8]: 0.1 mg/dL
TC [8]: 77.2 mg/dL
TG [8]: 45.4 mg/dL
TP [8]: 5.9 g/dL
gamma-GTP [8]: 1.6 IU/L

— ChEMBL document CHEMBL3885861, “Open TG-GATES”
